Measured values reported in article PMC5228037, “Discovery and Mechanistic Characterization of Selective Inhibitors of H2S-producing Enzyme: 3-Mercaptopyruvate Sulfurtransferase (3MST) Targeting Active-site Cysteine Persulfide” (Scientific Reports, 2017).

Legend:
[1] = biological target: T1, rhodanese (thiosulfate sulfurtransferase, Type II) (Bos taurus, UniProt P00586); assay: Rhodanese activity, conversion of cyanide to thiocyanide (Sörbo method); type: biochemical, bovine; details: 100 μM compound; room temperature 5 min; mean ± S.D.
T1 construct: Bovine liver rhodanese; purchased Sigma-Aldrich; host or cells: bovine liver
T1 sequence (P00586 1-297): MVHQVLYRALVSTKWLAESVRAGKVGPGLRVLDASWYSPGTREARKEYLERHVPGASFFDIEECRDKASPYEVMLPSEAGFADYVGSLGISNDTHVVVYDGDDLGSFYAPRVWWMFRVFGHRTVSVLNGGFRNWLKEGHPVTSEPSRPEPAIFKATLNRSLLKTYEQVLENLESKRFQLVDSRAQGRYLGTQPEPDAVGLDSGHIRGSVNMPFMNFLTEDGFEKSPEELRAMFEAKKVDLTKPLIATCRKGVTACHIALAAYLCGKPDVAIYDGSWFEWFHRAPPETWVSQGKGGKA
Procedure: (§1) Figure 2 Selectivity assessment of hit compounds for 3MST over other H2S/polysulfides-producing enzymes and rhodanese. (a) 3MST-Inhibitory activity of hit compounds at 10 and 100 μM in cell lysate of 3MST-expressing HEK293 cells. 100 μM 3MP and 100 μM DTT were added to the solution containing 0.1% DMSO as a cosolvent, and the mixture was incubated at 37 °C for 15 min. H2S production was measured by gas chromatography. All data are presented as the mean ± S.D. (100 μM: n = 3 or 4; 10 μM: n = 3). (b) Selectivity assessment of hit compounds at 100 μM towards CBS and CSE. Only DMSO was added to the control sample instead of DMSO solution containing hit compounds. H2S production was monitored by gas chromatography. All data are presented as the mean (n = 3). (c) Detection method for rhodanese activity (Sörbo method). (d) Selectivity assessment of hit compounds towards rhodanese. The results are mean ± S.D. (n = 4, three times). These values were determined based upon the absorbance of [Fe(SCN)3] at 460 nm (Sӧrbo method). Bovine rhodanese 1.3–1.7 units/mL, substrate: 52 mM Na2S2O3, 50 mM KCN, 0.004% (w/v) BSA, 100 μM compound and DMSO 1% (v/v) in 88 mM potassium phosphate buffer (pH 8.6) at room temperature for 5 min incubation. (e) Fluorescence confocal microscopic images of live COS7 cells transfected with 3MST or an empty vector[9] as a control. Cells were incubated with 50 μM SSP4, a fluorescent probe for sulfane sulfur, and 10 μM, 1 μM, 0.5 μM, 0.1 or 0 μM compound 3 in DMEM containing 0.6% DMSO for 30 min, then washed with HBSS and placed in fresh DMEM with 0‒10 μM compound 3 (Pre). 500 μM 3MP was added to the cells and the cells were incubated for 10 min (10 min). (f) Graphic representation of (e). F/F0 was calculated by dividing the fluorescence intensity of cells after addition of 500 μM 3MP (10 min) by that of cells before addition of 500 μM 3MP (Pre), then the mean F/F0 was determined from 5 cells. All data represent the mean ± standard error of the mean (SEM) of three experiments.
Following reagents were prepared.
B. 125 mM sodium thiosulfate (Na2S2O3) solution
C. 250 mM potassium cyanide (KCN) solution in reagent A
D. 14% (w/v) nitric acid (HNO3) solution
E. 410 mM ferric nitrate (Fe(NO3)3) in reagent D
F. 37% formaldehyde solution
G. 12.5 mM sodium thiosulfate (Na2S2O3) solution with 0.025% bovine serum albumin H. rhodanese solution in reagent G […]
Mixed by pipetting and equilibrate d to room
Reagent H (Enzyme Solution) 16 µL 16 µL - Mixed by pipetting and incubate d at 25℃ for exactly 5 minutes , and then added […]
Mixed by pipetting and then added […]
Mixed by pipetting , transferred the solution 44 µL 44 µL 44 µL […]
Mixed by pipetting and recorded the A460 nm for the Test, Control and Blank using a microplate […]
Supplementary Figure S10. […]

recombinant CSE = biological target: T2, recombinant CSE (Rattus norvegicus, UniProt P18757); assay: Inhibitory activity towards purified CSE by gas chromatography; type: biochemical; details: 100 μM compound, 10 mM L-cysteine
T2 construct: GST (N, cleaved yes); made in house; host or cells: E. coli DH5α
Procedure: as §1
GST-tagged rat CSE-HA or rat CBS-HA was expressed in E. coli DH5α as follows. […]

Inhibition of rhodanese conversion of cyanide ions to thiocyanide ions [1]	Inhibition of recombinant CSE enzymatic activity (H2S production) (recombinant CSE)	inhibition at 100 µM (recombinant CSE; read-out: Inhibition of recombinant CSE enzymatic activity (H2S production))	SMILES
10.9 ± 5.5%	enhanced H2S production	–	Cc1sc2nc(SCC(=O)c3ccc(O)cc3O)[nH]c(=O)c2c1C [compound 2]
18.2 ± 3.6%	–	~25%	NC(=O)c1ccsc1NC(=O)CSc1nc2ccccc2c(=O)[nH]1 [compound 1]
9.7 ± 4.5%	–	–	O=C(O)c1cccc(NS(=O)(=O)c2ccccc2)c1 [compound 5]
1.7 ± 6.7%	almost inactive	–	Cc1cc(=O)[nH]c(SCC(=O)c2cccc3ccccc23)n1 [compound 3]
